Experimental data as given in patent US9492501B2, “Antiviral agent” (priority 2009, dated 2016).

Columns and labels:
[1] = system: HIV-1 (proviral genome NL4.3, strain LAI); assay: HIV-1 replication, ELISA of viral p24 capsid protein in supernatant of infected Jurkat 1G5 cells; assay type: cell-based; settings: Human immunodeficiency virus 1; 10 μM AZT, treatment 24 hours, p24 in supernatant, Jurkat 1G5
Excerpt: (§1) Method: a Jurkat CD4+ T lymphocyte cell line (line 1G5) having integrated into its genome a construction comprising a luciferase reporter gene the expression of which is controlled by the HIV-1 promoter (HIV-1 LTR; HIV-LTR Jurkat line) was used. The measurement of luciferase activity from the cell extracts therefore makes it possible to estimate the HIV-1 transcriptional activity.
(§2) The Jurkat HIV-LTR and Jurkat 1G5 lines were transfected by means of the DEAE-dextran technique with the proviral genome NL4.3 (complete HIV-1 genome, strain LAI).
(§3) The HIV-LTR Jurkat and 1G5 Jurkat lines thus infected, are treated 24 hours later with HPBP/PON protein complexes or with purified PON or HPBP proteins at a final concentration of 2 μg/mL of medium (52 nM of protein alone).
(§4) The cells and the cell supernatant are sampled after treatment for 24 hours.
(§5) The transcriptional activity is measured by carrying out a luciferase test. The intensity of the HIV-1 replication is measured by means of ELISA assay of the quantity of viral p24 capsid proteins present in the supernatant of the cell cultures of the infected 1G5 lines [Rohr, O., et al. (2000). The Journal of Biological Chemistry 275, 2654-2660]. […]
(§6) The transcriptional activity and inhibition of the replication are measured as described in Example 6.

[2] = system: HIV-1 promoter (HIV-1 LTR); assay: HIV-1 transcriptional activity, luciferase test in HIV-LTR Jurkat line; assay type: cell-based; settings: 10 μM AZT, treatment 24 hours, FIG. 5 (luciferase activity)
Excerpt: as §1, §2, §3, §4, §5, §6

For `Cc1cn([C@H]2C[C@H](N=[N+]=[N-])[C@@H](CO)O2)c(=O)[nH]c1=O` [AZT, zidovudine, reference compound], the inhibition at 10 µM [1] was 60% and the “effect on the replication of the virus (FIG. 5)” value [2] was “no effect”.
